Laboratory results published in patent US11641858B2, “Agricultural chemicals” (Redag Crop Protection Ltd, priority 2016, dated 2023).

What was measured:
Phytophthora cinnamomi = assay: Amended agar assay (potato dextrose agar), reduction in colony growth; format: cell-based; conditions: for EC50: descending test concentrations, 5-fold dilutions typically down to 0.032 ppm, read-out: Phytophthora cinnamomi (EC50)
Protocol: (§1) Testing was carried out on potato dextrose agar (PDA) amended with each compound at test concentrations of 20, 4 and 0.8, 0.16 and 0.032 ppm. Amended agar at each test concentration was poured into three replicate 9 cm petri dishes. Each replicate dish was inoculated in the centre with a 5 mm agar plug taken from the leading edge of a culture aged between 2 and 7 days old; the age of the culture was dependant on the growth rate of the pathogen being tested. The test pathogens were Pythium ultimum and Phytophthora cinnamomi. Plates were incubated at 18° C. and the diameter of each colony measured before growth on the fastest growing plate reached the plate edge. This varied between 2 and 7 days depending on the growth rate of test pathogens. The % reduction in colony growth compared to the control was calculated for each test concentration and pathogen combination.
(§2) The results are shown in Table 1 in which * represents an average control of up to 50% at said dosage; ** represents an average control of 50% or greater but less than 80% at said dosage; and *** represents an average control of 80% or greater at said dosage.
(§3) A primary screen was also conducted for a number of other compounds of the invention. The screen was conducted at 20 ppm and the results are provided in Table 2, in which D represents no control detected at this concentration; C represents up to 50% control; B from 50 to 99% control; and A represents a control of greater than 99%.
(§4) Alternatively, or in addition, the same assay was conducted at descending test concentrations with 5-fold dilutions typically down to 0.032 ppm, and an EC50 (the concentration at which 50% control would be achieved) was determined. The results are provided in Table 1 in which G represents an EC50 above 20 ppm, F represents an EC50 of 2-20 ppm and E represents and EC50 less than 2 ppm.

Pythium ultimum = assay: as above; format: cell-based; conditions: for EC50 / inhibition of growth at 20 ppm: Globisporangium ultimum; for EC50: descending test concentrations, 5-fold dilutions typically down to 0.032 ppm, read-out: Pythium ultimum (EC50); for average % control at given dosage / inhibition of growth at 20 ppm: Pythium ultimum; for inhibition of growth at 20 ppm: primary screen at 20 ppm, read-out: % control at 20 ppm
Protocol: as §1, §2, §3, §4

EC50 (Phytophthora cinnamomi) | EC50 (Pythium ultimum) | Structure (SMILES) | further results
< 2 µg/mL | < 2 µg/mL | CCCOC(=O)Nc1cccc(COc2nc3ccccc3n2-c2nnnn2C)n1 [Example 21] | –
< 2 µg/mL | < 2 µg/mL | CCCCC(=O)Nc1cccc(COc2nc3ccccc3n2-c2nnnn2C)n1 [Example 31] | –
< 2 µg/mL | < 2 µg/mL | Cn1nnnc1-n1c(OCc2cccc(NC(=O)C3CC3)n2)nc2ccccc21 [Example 32] | –
< 2 µg/mL | 2 to 20 µg/mL | Cn1nnnc1-n1c(OCc2cccc(NC(=O)CS(C)(=O)=O)n2)nc2ccccc21 [Example 53, N-(6-(((1-(1-methyl-1H-tetrazol-5-yl)-1H-benzo[d]imidazol-2-yl)oxy)methyl)pyridin-2-yl)-2-(methylsulfonyl)acetamide] | –
– | – | Cn1nnnc1N(C(=O)OCc1cccc(NC(=O)C(F)(F)Oc2ccccc2)n1)c1ccccc1 [B, reference compound] | average % control at given dosage (Phytophthora cinnamomi; dose 0.032 ppm in amended agar): * (an average control of up to 50% at said dosage); average % control at given dosage (Phytophthora cinnamomi; dose 0.16 ppm in amended agar): ** (an average control of 50% or greater but less than 80% at said dosage); average % control at given dosage (Phytophthora cinnamomi; dose 0.8 ppm in amended agar): ** (an average control of 50% or greater but less than 80% at said dosage); average % control at given dosage (Phytophthora cinnamomi; dose 4 ppm in amended agar): ** (an average control of 50% or greater but less than 80% at said dosage); average % control at given dosage (Phytophthora cinnamomi; dose 20 ppm in amended agar): ** (an average control of 50% or greater but less than 80% at said dosage); average % control at given dosage (Pythium ultimum; dose 0.032 ppm in amended agar): * (an average control of up to 50% at said dosage); average % control at given dosage (Pythium ultimum; dose 0.16 ppm in amended agar): ** (an average control of 50% or greater but less than 80% at said dosage); average % control at given dosage (Pythium ultimum; dose 0.8 ppm in amended agar): ** (an average control of 50% or greater but less than 80% at said dosage); average % control at given dosage (Pythium ultimum; dose 4 ppm in amended agar): *** (an average control of 80% or greater at said dosage); average % control at given dosage (Pythium ultimum; dose 20 ppm in amended agar): *** (an average control of 80% or greater at said dosage)
< 2 µg/mL | < 2 µg/mL | Cn1nnnc1-n1c(OCc2cccc(NC(=O)OC(C)(C)C)n2)nc2c(F)cc(F)cc21 [Example 58] | –
< 2 µg/mL | < 2 µg/mL | COCCOC(=O)Nc1cccc(COc2nc3ccccc3n2-c2nnnn2C)n1 [Example 20] | –
< 2 µg/mL | < 2 µg/mL | Cn1nnnc1-n1c(OCc2cccc(NC(=O)CC3CC3)n2)nc2ccccc21 [Example 40] | –
– | – | O=C(Nc1cccc(COc2nc3ccccc3n2-c2ncccc2Br)n1)C(F)(F)Oc1ccccc1 [Example 62] | inhibition of growth at 20 ppm (Phytophthora cinnamomi; primary screen at 20 ppm, read-out: % control at 20 ppm): < 50%; inhibition of growth at 20 ppm (Pythium ultimum): < 50%
> 20 µg/mL | > 20 µg/mL | O=C(Nc1cccc(COc2nc3ccccc3n2-c2ccon2)n1)C(F)(F)Oc1ccccc1 [Example 9] | –
< 2 µg/mL | < 2 µg/mL | CCC(C)C(=O)Nc1cccc(COc2nc3ccccc3n2-c2nnnn2C)n1 (stereo not shown) [Example 51] | –
2 to 20 µg/mL | 2 to 20 µg/mL | COCC(=O)Nc1cccc(COc2nc3ccccc3n2-c2nnnn2C)n1 [Example 33] | –
> 20 µg/mL | > 20 µg/mL | Cc1nccnc1-n1c(OCc2cccc(NC(=O)OC(C)(C)C)n2)nc2ccccc21 [Example 59] | –
< 2 µg/mL | < 2 µg/mL | C=CCC(=O)Nc1cccc(COc2nc3ccccc3n2-c2nnnn2C)n1 [Example 50] | –
< 2 µg/mL | < 2 µg/mL | CSCCC(=O)Nc1cccc(COc2nc3ccccc3n2-c2nnnn2C)n1 [Example 41] | –
< 2 µg/mL | < 2 µg/mL | Cn1nnnc1-n1c(OCc2cccc(NC(=O)C(F)(F)Oc3ccccc3)n2)nc2ccc(C#N)cc21 [Example 60] | –
< 2 µg/mL | < 2 µg/mL | Cn1nnnc1-n1c(OCc2cccc(NC(=O)c3ccc(C#N)cc3)n2)nc2ccccc21 [Example 43] | –
< 2 µg/mL | < 2 µg/mL | Cn1nnnc1-n1c(OCc2cccc(NC(=O)OCc3ccccc3)n2)nc2ccccc21 [Example 14] | –
< 2 µg/mL | < 2 µg/mL | Cn1nnnc1-n1c(OCc2cccc(NC(=O)COc3ccccc3)n2)nc2ccccc21 [Example 25] | –
< 2 µg/mL | < 2 µg/mL | Cn1nnnc1-n1c(OCc2cccc(NC(=O)C3CCCCC3)n2)nc2ccccc21 [Example 35] | –
– | – | Cc1cc(-n2c(OCc3cccc(NC(=O)C(F)(F)Oc4ccccc4)n3)nc3ccccc32)sn1 [Example 8] | inhibition of growth at 20 ppm (Pythium ultimum): < 50%
